Laboratory results reported in ChEMBL document CHEMBL1155966, “Efficient synthesis of (+/-)-parasitenone, a novel inhibitor of NF-kappaB” (Bioorg Med Chem Lett, 2009).
Activity calls are given as the source filed them. The calls are words filed in the database; no cut-off is given here.

Assays:
RAW264.7 [1] = test: Antiinflammatory activity in mouse RAW264.7 cells assessed as inhibition of LPS-stimulated nitric oxide production at 10 ug/ml treated for 1 hr before LPS challenge measured after 24 hrs by Griess reagent method; assay type: functional, cell-based
RAW264.7 [2] = test: Inhibition of NF-kappaB transcriptional activity in LPS-stimulated mouse RAW264.7 cells treated for 1 hr before LPS challenge measured after 6 hrs by luciferase reporter gene assay; assay type: cell-based
[3] = test system: Radical scavenging activity; test: Antioxidant activity assessed as DPPH radical scavenging activity; assay type: functional
[4] = Antioxidant activity assessed as peroxynitrite radical scavenging activity; assay type: functional
RAW264.7 [5] = test: Cytotoxicity against mouse RAW264.7 cells assessed as reduction of cell viability at 30 ug/ml after 48 hrs by trypan blue exclusion assay; assay type: cell-based; settings: raw264.7, 48 h
RAW264.7 [6] = test: Antiinflammatory activity in mouse RAW264.7 cells assessed as inhibition of LPS-stimulated iNOS expression treated for 1 hr before LPS challenge measured after 24 hrs by immunoblotting; assay type: functional, cell-based
RAW264.7 [7] = test: Antiinflammatory activity in mouse RAW264.7 cells assessed as inhibition of LPS-stimulated nitric oxide production treated for 1 hr before LPS challenge measured after 24 hrs by Griess reagent method; assay type: functional, cell-based
RAW264.7 [8] = test: Growth inhibition of mouse RAW264.7 cells at 10 ug/ml after 48 hrs by trypan blue exclusion assay; assay type: cell-based; settings: raw264.7, 48 h

O=C(O)c1ccccc1O
Activity (RAW264.7 [1]): inactive

O=C(NC1=CC(=O)[C@H]2O[C@H]2[C@H]1O)c1ccccc1O [DEHYDROXYMETHYLEPOXYQUINOMICIN]
Activity (RAW264.7 [2]): Active
IC50 [3]: 57 µM
IC50 [4]: 52.6 µM

O=C1C=C(CO)[C@H](O)[C@@H]2O[C@H]12 [PARASITENONE]
Activity (RAW264.7 [5]): Active
Activity (RAW264.7 [2]): Active
Activity (RAW264.7 [6]): Dose-dependent effect
Activity (RAW264.7 [7]): Dose-dependent effect
Activity (RAW264.7 [1]): Active
Activity (RAW264.7 [8]): Active
